Test results from patent publication EP0211584A1, “Antihypertensive agents” (AMERICAN HOME PRODUCTS CORPORATION, priority 1985, dated 1987).
Where two headings read alike, the source gives them in different places.

Columns and labels:
[1] = test system: isolated paced intact rabbit atria; experiment: Cardiac depressant (negative inotropic) effect in isolated paced rabbit atria; settings: Oryctolagus cuniculus; for IC25: read-out: IC25 (concentration which produces 25% inhibition of isometric force)
Experimental: The potential for detrimental cardiac depressant (negative inotropic) effects of the compounds of this invention was assessed in isolated paced intact rabbit atria. […] Muscles (N=5-9/compound) were stimulated at a frequency of 3Hz with a WPI stimulator for a 60 minute equilibration period. Changes in isometric force were recorded as described for the aortic smooth muscle experiments, supra. […]

[2] = test system: rabbit aortic smooth muscle; experiment: Ca+2 antagonism: relaxation of KCl-depolarized rabbit aortic smooth muscle strips; settings: 20 min; for inhibition at 10 µM: Oryctolagus cuniculus, read-out: P.R. (percent relaxation of aortic tissue)
Experimental: The composition of PSS was as follows (mM): NaCl 112,KCI 5, NaHCO3 25 KH2PO4 1, MgSO4 1.2, CaCl2 2.5, dextrose 10. The lower end of each tissue strip was attached to a fixed post and the upper end to a Statham UC-4 transducer. Changes in force development were recorded on a Beckman Dynograph Polygraphic Recorder.
Following equilibration, the muscles were contracted in a depolarizing solution of PSS in which 100mM KCI was substituted for an equimolar concentration of NaCI. Following attainment of steady- state isometric force (20 min.), the test compound was added to afford a final concentration of 1 x 10^-5M. The inhibitory effect, expressed as percent relaxation, was determined from the mean of two experiments twenty minutes after the addition of the compound being tested.
(§1) The following examples illustrate the preparation of a representative number of compounds of this invention. After each example, the Ca+2 antagonist activity of the compound is presented in terms of percent relaxation of aortic tissue (P.R.) at 10-^5M concentration. […] Inhibition of super- precipitation (Antag. of Actin-Myosin interaction) is expressed as percent inhibition (mean ± standard error of the mean for at least 3 separate experiments) at a compound concentration. In the same manner, inhibition of myosin light chain phosphorylation (Antag. of MLCP) is expressed as a percent inhibition at a compound concentration. Similarly, the antihypertensive activity is reported in terms of millimetres mercury (mmHg) systolic blood pressure (B.P.) reduction at the stated time post 50 mg/kg oral dosing or other dosing as indicated.

[3] = test system: arterial actin-myosin interactions; experiment: Inhibition of superprecipitation (antagonism of actin-myosin interaction), Silver et al.; assay type: biochemical; settings: six minute time-point
Experimental: . The data reported herein was obtained at a six minute time-point rather than the 1.5, 5 and 12 minute time points indicated in the superprecipita- tion assay of the Silver et al paper.
as §1

[4] = molecular target: Ca^+2-calmodulin dependent myosin light chain phosphorylation (Bos taurus, UniProt Q28824); experiment: Inhibition of myosin light chain phosphorylation (MLCP), Silver et al.; assay type: biochemical; settings: read-out: Antag. of MLCP (percent inhibition of myosin light chain phosphorylation)
Experimental: The data reported herein was obtained at a six minute time-point rather than the 1.5, 5 and 12 minute time points indicated in the superprecipita- tion assay of the Silver et al paper.
as §1

[5] = test system: spontaneously hypertensive rats; experiment: Hypotensive effect: systolic blood pressure of spontaneously hypertensive rats; assay type: in vivo; settings: mmHg per method
Experimental: The hypotensive in vivo effect of the compounds of this invention was determined by measuring changes in the systolic blood pressure of spontaneously hypertensive rats with a Decker Caudal Plethysmograph. The compound being tested was administered to a group of 4 rats and their systolic pressure was determined prior to and at 1.5 and 4 hours after compound administration. Initial testing was done by oral administration of the compound. Results (mmHg) are expressed as decreases in systolic blood pressure.
as §1

[6] = rabbit atria paced at 3Hz, 30°C, cumulative dosing
[7] = compound 1 x 10^-5M, 100mM KCl contraction, 20 minutes after addition, mean of two experiments
[8] = dose 50mg/kg oral, at 1.5 hours, 50 mg/kg
[9] = dose 50mg/kg oral, at 4 hours, 50 mg/kg
[10] = dose 50mg/kg oral, at 1.5 hours
[11] = dose 25mg/kg oral, at 1.5 hours

SMILES | inhibition at 10 µM [2, 7] [%] | Antag. of Actin-Myosin (percent inhibition of superprecipitation) ([3]; 50µM) [%] | Antag. of Actin-Myosin (percent inhibition of superprecipitation) ([3]; 100µM) [%] | inhibition at 50 µM [4] [%] | inhibition at 100 µM [4] [%] | also measured
CC1=C(C(=O)OCCOc2ccccc2)C(c2c(F)c(F)c(F)c(F)c2F)C2=C(CNCC2=O)N1 (single isomer, unassigned) [Example 4, (+ )-1,4,5,6,7,8-Hexahydro-2-methyl-5-oxo-4-(pentafluorophenyl)-1,7-naphthyridine-3-carboxylic acid 2-phenoxyethyl ester] | 61 | 38 | 71 | 37 | 67 | IC25 [1, 6]: 800 nM
CO[C@H](COC(=O)C1=C(C)NC2=C(C(=O)CNC2)C1c1c(F)c(F)c(F)c(F)c1F)c1ccccc1 (single isomer, unassigned) [Example 8 Diastereomer A, 1,4,5,6,7,8-Hexahydro-2-methyl-5-oxo-4-(R or S-pentafluorophenyl)-1,7-naphthyridine-3-carboxylic acid(S)-2-methoxy-2-phenylethyl esters] | – | 28 | 69 | 28 | 63 | B.P. (systolic blood pressure reduction) [5, 8]: -73 mm; B.P. (systolic blood pressure reduction) [5, 9]: -86 mm; inhibition at 10 µM ([2]; 10^-5M, Note: Muscles were pre-treated): 50%
CO[C@H](COC(=O)C1=C(C)NC2=C(C(=O)CNC2)C1c1c(F)c(F)c(F)c(F)c1F)c1ccccc1 (single isomer, unassigned) [Example 8 Diastereomer B, 1,4,5,6,7,8-Hexahydro-2-methyl-5-oxo-4-(R or S-pentafluorophenyl)-1,7-naphthyridine-3-carboxylic acid(S)-2-methoxy-2-phenylethyl esters] | – | 30 | 64 | – | – | B.P. (systolic blood pressure reduction) [5, 8]: -28 mm; B.P. (systolic blood pressure reduction) [5, 9]: -67 mm; P.R. (percent relaxation of aortic tissue) ([2]; 10^-5M, Note: Muscles were pre-treated, 10 µM): 53%
COC(COC(=O)C1=C(C)NC2=C(C(=O)CNC2)C1c1c(F)c(F)c(F)c(F)c1F)c1ccccc1 (stereo not shown) [Example 5, 1,4,5,6,7,8-Hexahydro-2-methyl-5-oxo-4-(pentafluorophenyl)-1,7-naphthyridine-3-carboxylic acid 2-methoxy-2-phenylethyl ester] | 71 | 50±5 | 75±4 | 48 ± 2 | 70 ± 3 | IC25 [1, 6]: 10000 nM; Antag. of Actin-Myosin (percent inhibition of superprecipitation) ([3]; 25µM): 20±5%; inhibition at 25 µM [4]: 21 ± 3%
COC(COC(=O)C1=C(C)NC2=C(C(=O)CNC2)C1c1c(F)cccc1Cl)c1ccccc1 (stereo not shown) [Example 9, 4-(2-Chloro-6-fluoroohenyl)-1,4,5,6,7,8-hexahydro-2-methyl-5-oxo-1,7-naphthyridine-3-carboxylic acid 2-methoxy-2-phenylethyl ester] | 28 | – | 40 | – | 44 | B.P. (systolic blood pressure reduction) [5, 10]: -37 mm; B.P. (systolic blood pressure reduction) ([5]; dose 50mg/kg oral, at 4 hours): -14 mm
COC(COC(=O)C1=C(C)NC2=C(C(=O)CNC2)C1c1cccc(Cl)c1)c1ccccc1 (stereo not shown) [Example 11, 4-(3-Chloroahenyl)-1,4,5,6,7,8-hexahydro-2-methyl-5-oxo-1,7--naphthyridine-3-carboxylic acid. 2-methoxv-2-phenvlethvl ester] | 31 | – | 53 | – | 48 | B.P. (systolic blood pressure reduction) [5, 10]: -29 mm
CC1=C(C(=O)OCCOc2ccccc2)C(c2c(F)ccc(F)c2F)C2=C(CNCC2=O)N1 (stereo not shown) [Example 16, 1,4,5,6,7,8-Hexahydro-2-methyl-5-oxo-4-(2,3,6-trifluorophenyl)-1,7-naphthyridine-3-carboxylic acid 2-phenoxyethyl ester] | 63 | – | 34 | – | 28 | B.P. (systolic blood pressure reduction) [5, 11]: -37 mm
CC1=C(C(=O)OCC(C)(C)Oc2ccccc2)C(c2c(F)c(F)c(F)c(F)c2F)C2=C(CNCC2=O)N1 (stereo not shown) [Example 20, 1,4,5,6,7,8-Hexahydro-2-methyl-5-oxo-4-(pentafluorophenyl)-1,7-naphthyridine-3-carboxylic acid 2-methyl-2-phenoxypropyl ester] | 51 | – | 67 | – | 62 | B.P. (systolic blood pressure reduction) [5, 11]: -64 mm
CC1=C(C(=O)OCCOc2cccc(Cl)c2Cl)C(c2c(F)c(F)c(F)c(F)c2F)C2=C(CNCC2=O)N1 (stereo not shown) [Example 22, 1,4,5,6,7,8-Hexahydro-2-methyl-5-oxo-4-(pentafluorophenyl)-1,7-naphthyridine-3-carboxylic acid 2-(2,3-dichlorphenoxy)ethyl ester] | 61 | 75±4 | 78±1 | 73 ± 1.5 | 74 ± 2 | B.P. (systolic blood pressure reduction) [5, 11]: -37 mm; B.P. (systolic blood pressure reduction) ([5]; dose 25mg/kg oral, at 4 hours): -52 mm; Antag. of Actin-Myosin (percent inhibition of superprecipitation) ([3]; 10µM): 30±3%; Antag. of Actin-Myosin (percent inhibition of superprecipitation) ([3]; 25µM): 54±3%; inhibition at 10 µM ([4]; 10µM): 25%; inhibition at 25 µM [4]: 54 ± 2.5%
CC1=C(C(=O)OCCOc2ccccc2)C(c2c(F)ccc(C)c2Cl)C2=C(CNCC2=O)N1 (stereo not shown) [Example 23, 4-(2-chloro-6-fluoro-3-methylphenyl)-1,4,5,6,7,8-hexahydro-2-methyl-5-oxo-1,7-naphthyridine-3-carboxylic acid 2-phenoxyethyl ester] | 67 | 23 | 62 | 18 | 56 | B.P. (systolic blood pressure reduction) [5, 11]: -22 mm; B.P. (systolic blood pressure reduction) ([5]; dose 25mg/kg oral, at 4 hours): -31 mm
CC1=C(C(=O)OCCOc2ccccc2)C(c2c(F)ccc(Cl)c2Cl)C2=C(CNCC2=O)N1 (stereo not shown) [Example 24, 4-(2,3-Dichloro-6-fluorophenyl)-1,4,5,6,7,8-hexahydro-2-methyl-5-oxo-1,7-naphthyridine-3-carboxylic acid 2-phenoxyethyl ester] | 65 | 54±3 | 72±1 | 50 ± 2 | 68 ± 1 | IC25 [1, 6]: 10000 nM; Antag. of Actin-Myosin (percent inhibition of superprecipitation) ([3]; 25µM): 9±2%; inhibition at 25 µM [4]: 8 ± 2%
NCCCCCCNS(=O)(=O)c1cccc2c(Cl)cccc12 [Example W-7, reference compound] | – | – | – | – | – | inhibition at 10 µM ([1]; read-out: inhibition of isometric force): < 20%
COc1ccc(CCN(C)CCCC(C#N)(c2ccc(OC)c(OC)c2)C(C)C)cc1OC (stereo not shown) [Verapamil, reference compound] | – | – | – | – | – | IC25 [1]: 60 nM
COC(=O)C1=C(C)NC(C)=C(C(=O)OC)C1c1ccccc1[N+](=O)[O-] [nifedipine, reference compound] | – | – | – | – | – | IC25 [1]: 50 nM
CCOC(=O)C1=C(C)NC(C)=C(C(=O)OC)C1c1cccc([N+](=O)[O-])c1 (stereo not shown) [nitrendipine, reference compound] | – | – | – | – | – | IC25 [1, 6]: 350 nM
